“Also recorded” adds a separate entry of the source. Like-named read-outs stand apart in the source and are kept apart here.
Key:
Swiss 3T3 cells [1] = experiment: cytotoxicity and cellular RNA synthesis in drug-treated Swiss 3T3 cultures; settings: Swiss 3T3, experimental protocol of FIG. 2
[2] = system: α2 M in coated pits, Swiss 3T3 cells; experiment: electron microscopy (peroxidase staining) of α2 M appearance in coated pits of Swiss 3T3 cells; type: cell-based, mouse; settings: 250 μg/ml α2 M; for α2 M appearance in coated pits: 45 min at 4° C., varying inhibitor concentrations
Procedure: Swiss 3T3 cells were incubated with 250 μg/ml α2 M at 4° C., with and without inhibitor. Em localization of α2 M was performed using a peroxidase staining technique.
Varying concentrations of amantadine and rimantadine were present during the incubation period. The cells were then washed, fixed for EM and the α2 M located by the peroxidase method. […] In the absence of inhibitors, α2 M was easily detected in coated pits by the peroxidase techniques (FIG. 5B).

[3] = system: vesicular stomatitis virus (VSV); experiment: microbe, parasite or virus in culture; type: cell-based, vesicular stomatitis virus; Swiss 3T3 mouse cells; settings: for VSV-dependent RNA synthesis when VSV neutralizing antibody omitted (reversibility): Swiss 3T3, inhibitor-treated cultures; for IC50: Vesicular stomatitis virus, Swiss-3T3, in Mus musculus, 10 min, read-out: half-maximal inhibitory concentration, VSV dependent RNA synthesis; for effect on VSV entry / VSV dependent RNA synthesis: in words
[4] = biological target: T1, guinea pig liver transglutaminase (Cavia cutleri, UniProt P08587); experiment: guinea pig liver transglutaminase activity, incorporation of 3H-putrescine into casein; type: biochemical; settings: for IC50: 3H-putrescine into casein, read-out: Half-maximal Inhibitory Concentration, transglutaminase; for potency ranking in the transglutaminase assay: in words
T1 construct: guinea pig liver transglutaminase activity; from tissue; host or cells: guinea pig liver
T1 sequence (P08587 2-690): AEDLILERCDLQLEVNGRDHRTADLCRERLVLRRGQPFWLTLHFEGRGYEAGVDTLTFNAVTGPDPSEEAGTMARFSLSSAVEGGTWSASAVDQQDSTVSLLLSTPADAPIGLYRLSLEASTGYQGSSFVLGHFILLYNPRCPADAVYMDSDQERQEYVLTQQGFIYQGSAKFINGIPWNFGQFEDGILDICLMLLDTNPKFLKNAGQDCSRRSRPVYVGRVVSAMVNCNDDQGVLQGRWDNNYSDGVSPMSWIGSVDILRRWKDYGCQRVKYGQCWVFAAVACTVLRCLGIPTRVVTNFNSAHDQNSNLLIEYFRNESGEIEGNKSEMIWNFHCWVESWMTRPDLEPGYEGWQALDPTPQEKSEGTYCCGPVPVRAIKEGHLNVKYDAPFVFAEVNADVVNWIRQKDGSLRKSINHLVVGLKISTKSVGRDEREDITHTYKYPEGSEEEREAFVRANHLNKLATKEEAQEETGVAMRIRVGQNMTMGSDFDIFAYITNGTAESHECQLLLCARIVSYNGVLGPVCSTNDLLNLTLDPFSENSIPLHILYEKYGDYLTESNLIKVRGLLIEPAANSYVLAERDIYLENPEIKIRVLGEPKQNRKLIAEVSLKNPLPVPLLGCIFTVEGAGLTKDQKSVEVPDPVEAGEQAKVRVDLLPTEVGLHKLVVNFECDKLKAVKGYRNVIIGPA
Procedure: Effect of Dansylcadaverine, Amantadine, and Rimantadine
on the Activity of Guinea Pig Liver Transglutaminase
Enzyme activity was measured by the incorporation of ^3 H-putrescine into casein. All three inhibitors of viral and α2 M internalization were also inhibitory in the transglutaminase assay.

[5] = system: vesicular stomatitis virus (VSV); type: cell-based, vesicular stomatitis virus; Swiss 3T3 mouse cells; settings: for effect on uptake of VSV and α2 M via coated pits: Swiss 3T3, EM
[6] = system: α2 macroglobulin (α2 M) uptake, Swiss 3T3 cells; experiment: uptake (internalization) of 125I-α2 macroglobulin by Swiss 3T3 cells; type: cell-based, mouse; settings: for IC50: Mus musculus, 0.75 h, Swiss 3T3, 0.5 μg/ml 125I-α2 M, 45 min at 37° C., read-out: half-maximal inhibitory concentration, α2 M uptake; for effect on α2 macroglobulin uptake: in words
Swiss 3T3 cells [7] = system: Swiss 3T3 cells
[8] = system: vesicular stomatitis virus (VSV); type: cell-based, vesicular stomatitis virus; Swiss 3T3 mouse cells; settings: 200 μM; 10 min at 37° C.; MOI 500

SMILES	cytotoxicity (Swiss 3T3 cells [1])	α2 M appearance in coated pits [2]	α2 M localization by EM ([2]; 5 mM amantadine, 4° C. (FIG. 5C))	VSV-dependent RNA synthesis when VSV neutralizing antibody omitted (reversibility) [3]	IC50 [3] [µM]	effect on VSV entry / VSV dependent RNA synthesis [3]	IC50 [4] [µM]	potency ranking in the transglutaminase assay [4]	effect on uptake of VSV and α2 M via coated pits [5]	IC50 [6] [µM]	effect on α2 macroglobulin uptake [6]	cellular RNA synthesis, drug-treated versus control cultures (Swiss 3T3 cells [7])	potency relative to amantadine, VSV uptake (antiviral) ([3]; dansylcadaverine versus amantadine) [fold]	intracellular VSV G protein / VSV uptake by immunofluorescence [8]	coated pit appearance in VSV-infected cells by EM ([5]; 100 μM dansylcadaverine (FIG. 4D))	coated pit appearance in VSV-infected cells by EM ([5]; 500 μM dansylcadaverine (FIG. 4E))	α2 M localization by EM ([2]; 1 mM rimantadine, 4° C. (FIG. 5D))	coated pit appearance in VSV-infected cells by EM ([5]; 1 mM rimantadine (FIG. 4F))
NC12CC3CC(CC(C3)C1)C2 [amantadine, 1-adamantanamine]	no evidence of cytotoxicity	inhibition of α2 M appearance in coated pits	α2 M bound diffusely to the plasma membrane	control levels of VSV-dependent RNA synthesis	1000	reduction of VSV-dependent RNA synthesis; also recorded: inhibit VSV entry; also recorded: reduced VSV dependent RNA synthesis	20000	third	drastically perturbed this uptake mechanism	2500	inhibit the uptake of α2 macroglobulin	equivalent in control and drug-treated cultures						
CN(C)c1cccc2c(S(=O)(=O)NCCCCCN)cccc12 [dansylcadaverine]	no evidence of cytotoxicity			control levels of VSV-dependent RNA synthesis	50	blocking virus (such as vesicular stomatitis virus, VSV), and α2 macroglobulin uptake; also recorded: reduction of VSV-dependent RNA synthesis; also recorded: inhibit VSV entry; also recorded: reduced VSV dependent RNA synthesis	200	most potent	drastically perturbed this uptake mechanism	150	inhibit the uptake of α2 macroglobulin	equivalent in control and drug-treated cultures	20	little or no G protein	vacant coated pit	vacant coated pit		
CC(N)C12CC3CC(CC(C3)C1)C2 (stereo not drawn) [rimantadine]		inhibition of α2 M appearance in coated pits					5000	second most potent	drastically perturbed this uptake mechanism	500							α2 M bound to plasma membrane	vacant coated pit

— patent US4396628A (priority 1982, dated 1983)
